In US8710233B2 (Gruenenthal GmbH, priority 2005, dated 2014):
Like-named read-outs stand apart in the source and are kept apart here.

Legend:
Format in all cases: cell-based
[1] = target: T1, vanilloid receptor 1 (VR1/TRPV1) of the rat species (Rattus norvegicus, UniProt O35433); assay: FLIPR Ca2+ influx assay on rat dorsal root ganglia cells (pharmacological method I)
T1 construct: The spinal column is removed from decapitated rats; from tissue; host or cells: primary cells dissociated from rat dorsal root ganglia
From the text: I. Functional Investigation of the Vanilloid Receptor 1 (VR1/TRPV1 Receptor)
The agonistic or antagonistic action of the substances to be investigated on the vanilloid receptor 1 (VR1/TRPV1) of the rat species may be determined by the following assay. According to this assay, the influx of Ca^2+ through the receptor channel is quantified with the assistance of a Ca^2+-sensitive dye (type Fluo-4, Molecular Probes Europe BV, Leiden, Netherlands) in a Fluorescent Imaging Plate Reader (FLIPR, Molecular Devices, Sunnyvale, USA).
The spinal column is removed from decapitated rats and is placed directly in cold, i.e. located in an ice bath, HBSS buffer (Hank's buffered saline solution, Gibco Invitrogen GmbH, Karlsruhe, Germany) combined with 1 vol. % (percent by volume) of an AA solution (antibiotic/antimycotic solution, PAA, Pasching, Austria). The spinal column is cut open longitudinally and removed together with fasciae from the spinal canal. The dorsal root ganglia (DRGs) are then removed and in turn stored in cold HBSS buffer combined with 1 vol. % of an AA solution. The DRGs, from which all traces of blood and spinal nerves have been removed, are in each case transferred into 500 μL of cold collagenase type 2 (PAA, Pasching, Austria) and incubated for 35 minutes at 37° C. […] Once incubation is complete, the enzyme solution is carefully removed by pipette and the DRGs, which are left behind, are in each case combined with 500 μL of complete medium.
The DRGs are in each case repeatedly suspended, drawn by means of a syringe through […], no. 12 and no. 16 cannulas and transferred into 50 mL Falcon microtubes and each tube is made up to 15 mL with complete medium. The contents of each Falcon microtube are in each case filtered through a 70 μm Falcon filter insert and centrifuged for 10 minutes at 1200 revolutions and room temperature. The resultant pellet is in each case resuspended in 250 μL of complete medium and the cell count determined.
The number of cells in the suspension is adjusted to 3×10^5 per mL and a 150 μL portion of this suspension is in each case placed in a well of the cell culture plate which has been coated as described above.
The cells are then loaded with 2 μM Fluo-4 and 0.01 vol. % Pluronic F127 (Molecular Probes Europe BV, Leiden, Netherlands) in HBSS buffer (Hank's buffered saline solution, Gibco Invitrogen GmbH, Karlsruhe, Germany) for 30 min at 37° C., washed 3× with HBSS buffer and, after a further 15 minutes' incubation at room temperature, used for Ca^2+ measurement in the FLIPR assay. […] Quantification proceeds by measuring the highest fluorescence intensity (FC, fluorescence counts) over time.
The FLIPR protocol comprises 2 additions of substance. The compounds to be tested (10 μM) are firstly pipetted onto the cells and Ca^2+ influx is compared with the control (capsaicin 10 μM). This provides the percentage activation relative to the Ca^2+ signal after addition of 10 μM of capsaicin (CP). After 5 minutes' incubation, 100 nM of capsaicin are added and the influx of Ca^2+ is again determined.
Desensitising agonists and antagonists result in suppression of Ca^2+ influx. The percentage inhibition in comparison with the maximum achievable inhibition with 10 μM capsaicin is calculated.
Triplicate determinations (n═3) are performed and these are repeated in at least 3 independent experiments […].

vanilloid receptor (VR1) = target: T2, vanilloid receptor (VR1) (Homo sapiens, UniProt Q8NER1); assay: FLIPR Ca2+ influx assay on CHO K1 cells transfected with the VR1 gene (pharmacological method II)
T2 construct: expressed in transfected cells; host or cells: CHO K1 cells (ECACC), stably transfected

VR1/TRPV1 receptor = VR1/TRPV1 receptor (Homo sapiens, UniProt Q8NER1); assay: IC50 (human) after pH stimulus; settings: for IC50: table 4
[2] = table 4, capsaicin, read-out: Ki (rat) Cap.
[3] = table 4, capsaicin, read-out: Ki (human) Cap.
[4] = read-out: inhibition in percent, IC50 (human) after pH stimulus
[5] = Table 2, displacement of capsaicin (100 nM), Cheng-Prusoff, read-out: Ki (rat)
[6] = Table 2, displacement of capsaicin (100 nM), Cheng-Prusoff, read-out: Ki (human)

T2 sequence (Q8NER1 whole entry): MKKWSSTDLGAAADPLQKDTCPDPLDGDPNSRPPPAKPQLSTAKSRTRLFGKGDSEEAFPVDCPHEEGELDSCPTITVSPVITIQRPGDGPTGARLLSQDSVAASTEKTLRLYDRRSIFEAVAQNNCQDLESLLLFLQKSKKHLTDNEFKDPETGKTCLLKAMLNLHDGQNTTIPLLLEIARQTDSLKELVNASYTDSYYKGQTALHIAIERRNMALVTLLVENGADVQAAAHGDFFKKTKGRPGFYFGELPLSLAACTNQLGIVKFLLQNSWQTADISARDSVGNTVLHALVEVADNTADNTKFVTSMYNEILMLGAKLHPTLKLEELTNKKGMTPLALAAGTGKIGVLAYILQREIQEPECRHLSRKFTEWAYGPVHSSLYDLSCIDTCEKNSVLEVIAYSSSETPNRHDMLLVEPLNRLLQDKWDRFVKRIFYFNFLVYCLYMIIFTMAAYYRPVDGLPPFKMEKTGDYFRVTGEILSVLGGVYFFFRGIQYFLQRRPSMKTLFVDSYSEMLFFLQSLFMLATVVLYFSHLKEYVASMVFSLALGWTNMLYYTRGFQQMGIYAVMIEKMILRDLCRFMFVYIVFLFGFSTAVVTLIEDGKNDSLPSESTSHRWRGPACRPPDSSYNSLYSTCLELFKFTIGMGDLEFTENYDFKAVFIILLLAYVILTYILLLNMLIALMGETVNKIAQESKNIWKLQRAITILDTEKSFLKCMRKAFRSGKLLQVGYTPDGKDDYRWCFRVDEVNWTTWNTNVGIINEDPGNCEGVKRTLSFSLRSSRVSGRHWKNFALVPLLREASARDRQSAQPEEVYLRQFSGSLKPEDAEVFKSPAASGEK
Chain of VR1/TRPV1 receptor (Q8NER1 whole entry): as above
T1 sequence (O35433 whole entry): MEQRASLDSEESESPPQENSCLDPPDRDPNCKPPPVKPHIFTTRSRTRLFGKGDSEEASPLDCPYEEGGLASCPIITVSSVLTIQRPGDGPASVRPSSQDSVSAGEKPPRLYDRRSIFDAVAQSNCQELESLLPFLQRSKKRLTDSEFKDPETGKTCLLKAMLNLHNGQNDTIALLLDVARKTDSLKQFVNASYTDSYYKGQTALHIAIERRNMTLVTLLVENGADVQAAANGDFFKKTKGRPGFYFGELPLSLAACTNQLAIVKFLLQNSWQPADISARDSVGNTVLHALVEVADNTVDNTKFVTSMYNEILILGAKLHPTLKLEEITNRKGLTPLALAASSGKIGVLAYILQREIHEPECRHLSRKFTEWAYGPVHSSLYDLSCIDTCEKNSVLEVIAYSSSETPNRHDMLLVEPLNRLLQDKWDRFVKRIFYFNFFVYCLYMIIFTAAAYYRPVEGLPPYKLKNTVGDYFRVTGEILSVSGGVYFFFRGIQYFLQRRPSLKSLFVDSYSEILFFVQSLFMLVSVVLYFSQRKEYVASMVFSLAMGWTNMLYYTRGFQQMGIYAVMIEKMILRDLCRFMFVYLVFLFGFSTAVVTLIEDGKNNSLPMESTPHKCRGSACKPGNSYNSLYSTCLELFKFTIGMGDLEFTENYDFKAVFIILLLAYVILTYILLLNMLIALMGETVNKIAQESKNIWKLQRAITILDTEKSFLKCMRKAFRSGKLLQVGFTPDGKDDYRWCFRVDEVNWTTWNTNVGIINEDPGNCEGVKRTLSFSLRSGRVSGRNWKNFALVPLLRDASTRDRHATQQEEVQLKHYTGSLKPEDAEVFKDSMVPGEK

Row | SMILES | Ki [1, 2] [nM] | Ki [1, 5] [nM] | Ki (vanilloid receptor (VR1); [6]) [nM] | further results
1 | CC(C(=O)NCc1ccc(C(F)(F)F)cc1N1CCN(c2ccc(C(F)(F)F)cc2)CC1)c1ccc(NS(C)(=O)=O)c(F)c1 (stereo not drawn) [Example 248, 2-(3-fluoro-4-methylsulfonamido-phenyl)-N-{4-trifluoromethyl-2-[4-(4-trifluoromethyl-phenyl)-piperazin-1-yl]-benzyl}-propionamide] | 0.9 |  |  | Ki (vanilloid receptor (VR1); [3]): 3.9 nM; inhibition at 10 µM (VR1/TRPV1 receptor; [4]): 66%; inhibition at 25 µM (VR1/TRPV1 receptor; @ 25 μM, read-out: inhibition in percent, IC50 (human) after pH stimulus): 74%
2 | CC(C(=O)NCc1ccc(C(F)(F)F)nc1N(C)C)c1ccc(NS(C)(=O)=O)c(F)c1 (stereo not drawn) [Example 85, N-(2-dimethylamino-6-trifluoromethyl-pyridin-3-ylmethyl)-2-(3-fluoro-4-methylsulfonamido-phenyl)-propionamide] | 67.9 |  |  | Ki (vanilloid receptor (VR1); [3]): 19.1 nM; IC50 (VR1/TRPV1 receptor): 2390 nM
3 | CC(C(=O)NCc1ccc(C(F)(F)F)cc1N1CCCCC1)c1ccc(NS(C)(=O)=O)c(Cl)c1 (stereo not drawn) [Example 66, 2-(3-chloro-4-(methylsulfonamido)phenyl)-N-(2-(piperidin-1-yl)-4-(trifluoromethyl)benzyl)propanamide] |  | 3.7 | 2.9 | 
4 | CC1CCN(c2nc(-c3ccc(F)cc3)ccc2CNC(=O)C(C)c2ccc(NS(C)(=O)=O)c(F)c2)CC1 (stereo not drawn) [Example 184, 2-(3-fluoro-4-methylsulfonamido-phenyl)-N-[6′-(4-fluoro-phenyl)-4-methyl-3,4,5,6-tetrahydro-2H-[1,2′]bipyridinyl-3′-ylmethyl]-propionamide] | 77 |  |  | 
5 | CC(C(=O)NCc1ccc(C(F)(F)F)cc1N1CCCC1)c1ccc(NS(C)(=O)=O)c(Br)c1 (stereo not drawn) [Example 69, 2-(3-bromo-4-(methylsulfonamido)phenyl)-N-(2-(pyrrolidin-1-yl)-4-(trifluoromethyl)benzyl)propanamide] |  | 2.4 | 1.7 | 
6 | CC(C(=O)NCc1ccc(C(F)(F)F)nc1N1CCCCC1)c1ccc(NS(C)(=O)=O)c(Br)c1 (stereo not drawn) [Example 67, 2-(3-bromo-4-(methylsulfonamido)phenyl)-N-((2-(piperidin-1-yl)-6-(trifluoromethyl)pyridin-3-yl)methyl)propanamide] |  | 5.1 | 3.2 | 
7 | CCCCOc1nc(C(F)(F)F)ccc1CNC(=O)C(C)c1ccc(NS(C)(=O)=O)c(F)c1 (stereo not drawn) [Example 19, N-((2-butoxy-6-(trifluoromethyl)pyridin-3-yl)methyl)-2-(3-fluoro-4-(methylsulfonamido)phenyl)propanamide] |  | 1 |  | 
8 | CC(C(=O)NCc1ccc(C(F)(F)F)nc1N1CCCC1)c1ccc(NS(C)(=O)=O)c(Cl)c1 (stereo not drawn) [Example 65, 2-(3-chloro-4-(methylsulfonamido)phenyl)-N-((2-(pyrrolidin-1-yl)-6-(trifluoromethyl)pyridin-3-yl)methyl)propanamide] |  | 36.5 | 4.2 | 
9 | CC1CC(C)CN(c2nc(C(F)(F)Cl)ccc2CNC(=O)C(C)c2ccc(NS(C)(=O)=O)c(F)c2)C1 (stereo not drawn) [Example 187, N-[6′-(chloro-difluoro-methyl)-3,5-dimethyl-3,4,5,6-tetrahydro-2H-[1,2′]bipyridinyl-3′-ylmethyl]-2-(3-fluoro-4-methylsulfonamido-phenyl)-propionamide] | 0.5 |  |  | IC50 (VR1/TRPV1 receptor): 39.6 nM
10 | CC(C(=O)NCc1ccc(C(F)(F)F)nc1N1CCCCC1)c1ccc(NS(C)(=O)=O)c(Cl)c1 (stereo not drawn) [Example 64, 2-(3-chloro-4-(methylsulfonamido)phenyl)-N-((2-(piperidin-1-yl)-6-(trifluoromethyl)pyridin-3-yl)methyl)propanamide] |  | 6.3 | 2.3 | 
11 | Cc1cc(C(F)(F)F)nc(N2CCC(C)CC2)c1CNC(=O)C(C)c1ccc(NS(C)(=O)=O)c(F)c1 (stereo not drawn) [Example 318, N-(4,4′-dimethyl-6′-trifluoromethyl-3,4,5,6-tetrahydro-2H-[1,2′]bipyridinyl-3′-ylmethyl)-2-(3-fluoro-4-methylsulfonamido-phenyl)-propionamide] |  |  |  | Ki (vanilloid receptor (VR1); [3]): 17.5 nM; inhibition at 5 µM (VR1/TRPV1 receptor; @ 5 μM, read-out: inhibition in percent, IC50 (human) after pH stimulus): 4%; inhibition at 10 µM (VR1/TRPV1 receptor; [4]): 32%
